What was measured:
GRP1 PH domain = GRP1 PH domain (Homo sapiens, UniProt O43739); assay: FP PIP3/GRP1 PH domain binding assay; conditions: 15 nM TMR-conjugated PIP3, 100 nM GRP1 PH domain, 30 min
human cancer cells = assay: Cancer cell migration, transwell migration and wound closure models; format: cell-based; conditions: for cancer cell migration: model not specified
Procedure: Two models of cell migration were used, a transwell migration model and a wound closure model. Migration of cancer and endothelial cells was evaluated using 24-transwell Boyden chamber (Costar, Bedford, Mass.) with a polystyrene membrane (6.5 mm diameter, 10 μm thickness, and 8 μm pore size). Cells were suspended in serum-free media and seeded in the upper compartment of each well (2×10^4 cells/well) in the presence or absence of different compounds at the indicated concentrations. The lower compartment contained 600 μl of serum-free culture media supplemented with growth factors. After an 8-hr incubation at 37° C., cells were fixed and stained with 0.1% crystal violet. Non-migrating cells on the upper surface of the filter were removed, and the stained cells that migrated to the lower side were photographed using a phase-contrast microscope (Nikon, Japan) in five random fields. The cells were lysed with 10% acetic acid, and colorimetric determination was made at 595 nm using Wallac Victor 3 plate reader.
Cancer or endothelial cells were seeded into fibronectin-coated 96-well plates (2×10^4 cells/well). After reaching confluence, cell monolayers were scratched with a pipette tip to obtain a “wound”. The media and dislodged cells were aspirated and replaced by fresh serum-free media in the presence of growth factors, with or without compounds at different concentrations. After an 8-hr incubation at 37° C., cells were photographed using a phase-contrast microscope in five random fields. The width of wounded cell monolayers in images was measured and the inhibition rates of migration were calculated as inhibition rate=[1−(compound-treated group/control group)]×100%, and IC50 value was determined using Origin6 software (MicroCal, LLC, Northampton, Mass.).

[1] = system: SUM159 cells transfected with VAV2 or WAVE2; assay: Wound migration of VAV- or WAVE-overexpressing cells; format: cell-based, human; conditions: PDGF, 8 hr
Procedure: SUM159 cells were transfected with VAV2 or WAVE2. Scratch wound was generated in cell monolayer, followed by treatment with PIT-1 (100 μM) in the presence of PDGF (100 ng/ml) stimulation for 8 hr. The inhibitory effect of PITs on VAV- or WAVE-induced cell migration was calculated according to the width of wound. The width of wounded cell monolayers was measured in five random fields.

[2] = system: SUM159 cells transfected with VAV2 or WAVE2; assay: Lamellipodia formation and membrane translocation in VAV/WAVE-transfected cells; format: cell-based, human; conditions: 100 μM, 2 hr
Source text: Of the PIP3-binding actin-regulating factors, VAV and WAVE family proteins have been identified as important PIP3-interacting proteins regulating actin polymerization, lamellipodia formation, and cell motility in response to growth factor stimulation. Hornstein I et al. (2004) Cell Signal 16:1-11; Oikawa T et al. (2004) Nat Cell Biol 6:420-6. Therefore, the effect of PIT-1 on the cellular localization of GFP fusions of VAV and WAVE proteins was investigated. SUM159 cells transfected with VAV2 or WAVE2 GFP vectors were treated with PIT-1, PIT-2, PIT-1i-1, or PIT-1i-2 (100 μM) for 2 hr. Alternatively, cells were serum starved overnight, treated with these same compounds and then stimulated with PDGF 100 ng/ml for 15 min. Subsequently, actin fibers were stained with TRITC-phalloidin and analyzed using fluorescent microscopy. The numbers of cell ruffles/lamellipodia were counted in five random fields.

[3] = system: differentiated HL-60 cells; assay: fMLP-stimulated cell polarization; format: cell-based; conditions: 100 μM, 2 hr
Procedure: In another set of experiments, the ability of PITs to inhibit fMLP-stimulated HL-60 cell polarization was examined. Differentiated HL-60 cells were treated with PIT-1, PIT-2, PIT-1i-1, or PIT-1i-2, each at 100 μM for 2 hr, followed by stimulation with 100 nM fMLP for 3 min. Actin was stained and analyzed using fluorescent microscopy. The number of the polarized cells was counted in five random fields.

eIF-1 = eIF-1 (Homo sapiens (Human), UniProt P41567); assay: NMR HSQC specificity control; format: binding
U87MG cells [4] = assay: Cell death in U87MG cells overexpressing PH domain-deficient constitutively active Akt; format: cell-based, human
Procedure: To further confirm the mode of action of PIT-1 in the cells is directly related to the inhibition of PIP3/Akt PH domain interaction, induction of cell death in cells overexpressing constitutively active Akt lacking PH domain, but containing a membrane-targeting myristoylation signal, was tested. […] This is not unexpected, considering that another PIT-1 target, PDK1, regulates cell survival through both Akt-dependent and Akt-independent pathways.

PI3K-PDK1-Akt signaling = PI3K-PDK1-Akt signaling in growth factor-stimulated SUM159 cells; format: cell-based, human
PLC-δ PH domain = PLC-δ PH domain (Homo sapiens (Human), UniProt P51178); assay: FP PIP2/PLC-δ PH domain binding assay; conditions: FIG. 5
Procedure: FIG. 5 is a graph depicting specificity and concentration-dependent competitive inhibition of PIP3-PH domain interaction by PIT-1 and PIT-2. 15 nM TMR-conjugated PIP2 were incubated with 100 nM PLC-δ PH domain in the presence or absence of the indicated concentrations of PITs (0-200 μM) for 30 min, followed by FP measurement.
In order to identify compounds that disrupt the interaction between PIP3 and PH domains, a high-throughput fluorescence polarization (FP)-binding assay was developed using recombinant 1-123 amino acid N-terminal fragment of human Akt1 (also referred to herein simply as Akt), encompassing the PH domain (PH123 protein), and fluorescent NBD-labeled PIP3 molecule. The amino acid sequence of human Akt1 is publicly available as, for example, GenBank Accession No. NP_001014432.1 (SEQ ID NO:1), and the corresponding DNA sequence is publicly available as, for example, GenBank Accession No. NM_001014432. Briefly, 5 μM recombinant GST fusion proteins containing 1-123 a.a. N-terminal fragment of human Akt1 (PH 123) or 100 nM 441-551 a.a. region of human PDK1 were incubated with 15 nM TMR-labeled PIP3, PIP2, or PIP5 in buffer containing 50 mM Tris-HCl (pH 7.5), 150 mM NaCl, and 5 mM b-ME for 15 min at room temperature in the dark. FP values were determined using Wallac Victor 3 plate reader. […]

U87MG cells [5] = assay: Long-term colony formation; format: cell-based, human

Chain of eIF-1 (P41567 whole entry, species assumed, the tested form may be a part): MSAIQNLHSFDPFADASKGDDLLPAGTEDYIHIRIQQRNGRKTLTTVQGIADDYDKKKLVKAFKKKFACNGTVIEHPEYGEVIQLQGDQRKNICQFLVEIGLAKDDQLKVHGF
Chain of PLC-δ PH domain (P51178 21-130): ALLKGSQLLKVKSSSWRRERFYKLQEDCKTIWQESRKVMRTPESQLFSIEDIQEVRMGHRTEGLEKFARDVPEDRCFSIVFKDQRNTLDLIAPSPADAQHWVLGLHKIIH

| SMILES | IC50 (GRP1 PH domain) [µM] | cancer cell migration (human cancer cells) | inhibition of migration in VAV- and WAVE-overexpressing cells compared to control cells [1] | lamellipodia formation and membrane translocation of VAV/WAVE proteins [2] | growth factor-induced transwell migration (human cancer cells; dose-dependent) | fMLP-stimulated polarization of differentiated HL-60 neutrophils [3] | changes in HSQC spectra of eIF-1 (eIF-1) | effect of overexpressed PH domain-deficient Akt on killing of U87MG cells (U87MG cells [4]) | PI3K-PDK1-Akt signaling in SUM159 cells (PI3K-PDK1-Akt signaling) | inhibition of interaction between PIP2 and PH domain of PLC-δ (PLC-δ PH domain) | long-term colony formation by U87MG cells (U87MG cells [5]) |
| --- | --- | --- | --- | --- | --- | --- | --- | --- | --- | --- | --- |
| O=C(NC(=O)c1ccccc1)Nc1cc([N+](=O)[O-])cc(Cl)c1O [PIT-1i-1, reference compound] | > 200 | neither PIT-1i-1 nor PIT-1i-2 was active | lacked activity | inactive | – | – | – | – | – | – | – |
| O=C(NC(=S)Nc1cc([N+](=O)[O-])cc(Cl)c1O)c1ccccc1 [PIT-1] | 40.3 ± 2.8 | much stronger than that of Akt kinase inhibitor VIII | larger degree of inhibition of cell migration | – | substantially inhibited | efficient inhibition | did not elicit any changes | significantly protected U87MG cells from PIT-1 killing | significantly suppressed PI3K-PDK1-Akt signaling | failed to inhibit | suppressed long-term colony formation |
| COc1c(Cl)cc([N+](=O)[O-])cc1NC(=S)NC(=O)c1ccccc1 [PIT-1i-2] | > 200 | neither PIT-1i-1 nor PIT-1i-2 was active | lacked activity | inactive | – | – | – | – | – | – | – |

— patent US8628961B2, “Small molecule antagonists of phosphatidylinositol-3,4,5-triphosphate (PIP3) and uses thereof” (Tufts University, priority 2010, dated 2014)
